According to patent publication US20250040554A1, “NEW USES OF PHENMEDIPHAM AND HERBICIDAL COMBINATIONS COMPRISING PHENMEDIPHAM” (BAYER AKTIENGESELLSCHAFT, priority 2021, published 2025):

How the values were obtained:
Assay type in all cases: in vivo
[1] = tested on: BRADC=Brachiaria decumbens; assay: Weed control field trial BRADC
Description: (§1) The respective (combinations of) materials were applied to weed plants in the greenhouse or in the field at the respective growth stage indicated hereinafter for the different weed species mentioned below. The respective (combinations of) active ingredients were also applied to corn, cotton and soybean crop plants, and the selectivity (damage) in these crop plants rated (assessed).
(§2) Visual scoring of the damage to the trial plants took place after the time mentioned in the respective Table—indicated in number of Days After Application (DAA). Damage and development of all above-ground parts of the respective plants was recorded. Visual rating was done on a percentage scale in relation to the untreated control (100%=all plants dead; 50%=green plant biomass reduced by 50%, and 0%=no discernible difference=like control plot).
(§3) The trials in the greenhouse were sprayed with an application volume of 300 L/ha with an automated track sprayer. The plots in the field were sprayed with an application volume of 140 L/ha with a hand held spray boom.
(§4) wherein • A, B=respective value in percent of active ingredient A at a dose rate of a g/ha, ingredient B at a dose rate of b g/ha • E^C=Expected value according to Colby (S. R. Colby; Weeds 15 (1967), 20-22) in % at a dose rate of a+b, each in g/ha • Δ=Difference (in %) between measured value E and expected value E^C (%) (measured value minus expected value)
The growth stages of the different weed species are indicated according to the BBCH monograph “Growth stages of mono- and dicotyledonous plants”, 2nd edition, 2001, ed. Uwe Meier, Federal Biological Research Centre for Agriculture and Forestry (Biologische Bundesanstalt für Land und Forstwirtschaft).
After the harmful plants had emerged, they were treated, at the respective growth stage indicated, with the respective materials as indicated at a water application rate of 140 L/ha.
After the treatment (21 or 35 days after application of the respective material), the herbicidal activity of respective material was scored visually at the same time by comparing the differently treated plots with the untreated control plots. The score figures of the different plots were averaged.
(§5) The dose rates of herbicidal ingredients used in each case are indicated for the respective active ingredient and refer to the amount of active ingredient per hectare (g/ha).
The weed control activity of different (combinations of) herbicidal active ingredients was investigated in field trials for the following weed species: • AMAVI=Amaranthus viridis • IPOAO=Ipomoea aristolochiaefolia • EPHHL=Euphorbia heterophylla • BIDPI=Bidens pilosa • BRADC=Brachiaria decumbens • ELEIN=Eleusine indica • CCHEC=Cenchrus echinatus
The growth stage of AMAVI was BBCH 13, the growth stage of IPOAO was BBCH 15, the growth stage of EPHHL was BBCH 13, the growth stage of BIDPI was BBCH 14, the growth stage of BRADC was BBCH 23, the growth stage of ELEIN was BBCH 11 and the growth stage of CCHEC was BBCH 12 at the time of application of the respective material.
Phenmedipham and Mesotrione were applied at varying application rates (Dose Rate) to the different species of weed plants. The results are shown in Tables 3a to 3e as the % control when assessed 21 and 35 days after application (DAA), respectively.
In all the trials of Tables 3a to 3e Mero® (rapeseed oil methyl ester) was added to the respective spray mixture in an amount corresponding to 1 L/ha for PMP, 1 L/ha for MST, and 2 L/ha for mixtures of PMP+MST.

STEME=Stellaria media = assay: Greenhouse weed control trial STEME; details: 25 DAA
Description: as §1, §2, §3
(§6) In greenhouse selectivity trials and trials herbicidal activity trials against weed plants were investigated in post-emergence application of the respective material(s).
Herbicidal activity against different weeds (undesired plants) was calculated as follows.
as §4
• measured value E is greater than E^C:->synergism (+Δ) • measured value E is equal to E^C:->additive effect • measured value E is smaller than E^C:->antagonism (−Δ)
The weed control activity of different (combinations of) materials was investigated in greenhouse trials for the following weed species: • STEME=Stellaria media • ECHCG=Echinochloa crus-galli • BROTE=Bromus tectorum
Phenmedipham amd Mesotrione were applied at varying application rates (Dose Rate) to the weed plant species STEME, ECHCG and BROTE. The results are shown in Tables 2a to 2c as the % control when assessed 25 days after application (25 DAA).
In all the trials of Table Tables 2a to 2c Mero® (rapeseed oil methyl ester) was added to the respective spray mixture in an amount corresponding to 1 L/ha for PMP, 1 L/ha for MST, and 2 L/ha for mixtures of PMP+MST.

[2] = tested on: AMARE=Amaranthus retroflexus; assay: Weed control field trial AMARE; details: 15 DAA
Description: as §1, §2, §4
After the harmful plants had emerged, they were treated, at the respective growth stage indicated, with the respective materials as indicated at a water application rate of 187 L/ha.
After the treatment (15 days after the treatment), the herbicidal activity of respective material was scored visually at the same time by comparing the differently treated plots with the untreated control plots. The score figures of the different plots were averaged.
as §5
The weed control activity of different (combinations of) herbicidal active ingredients was investigated in field trials for the following weed species: • AMARE=Amaranthus retroflexus • KCHSC=Kochia scoparia • PANRA=Panicum ramosum
The growth stage of AMARE was BBCH 19, the growth stage of KCHSC was BBCH 19 and the growth stage of PANRA was BBCH 22 at the time of application of the respective material.
Phenmedipham and the respective aroylcyclohexanedione herbicide were applied at varying application rates (Dose Rate) to the different species of weed plants. The results are shown in Tables 4a to 4d as the % control when assessed 15 days after application (DAA), respectively.
In all the trials of Tables 4a to 4d Mero® (rapeseed oil methyl ester) was added to the respective spray mixture in an amount corresponding to 1 L/ha for PMP, 1 L/ha for the respective aroylcyclohexanedione herbicide, and 2 L/ha for mixtures of PMP+the respective aroylcyclohexanedione herbicide.

[3] = tested on: soybean (Glycine max, GLXMA); assay: Greenhouse selectivity trial, post-emergence, soybean; details: 8 DAA
Description: as §1, §2, §3, §6
Phenmedipham was applied at varying application rates (Dose Rate) to the crop plants of corn (Zea mays subsp. amylacea, ZEAMA), soybean (Glycine max, GLXMA) and cotton (Gossypium hirsutum, GOSHI) at a BBCH growth stage of the plants of BBCH 13 and the crop safety (crop injury, damage) assessed. The results are shown in Table 1 as the % damage when assessed 8 days after application (8 DAA).
In all the selectivity trials of Table 1 the adjuvant Mero® (rapeseed oil methyl ester) was added to the respective spray mixture in an amount corresponding to 1 L/ha.

CS(=O)(=O)c1ccc(C(=O)C2C(=O)CCCC2=O)c([N+](=O)[O-])c1 [MST, 2-[4-(methylsulfonyl)-2-nitrobenzoyl]cyclohexane-1,3-dione]
% control BRADC ([1]; 25 g/ha, 21 DAA): 0%
% control BRADC ([1]; 25 g/ha, 35 DAA): 0%
% control BRADC ([1]; 50 g/ha, 21 DAA): 17%
% control BRADC ([1]; 50 g/ha, 35 DAA): 13%
% control STEME (STEME=Stellaria media; 12.5 g/ha): 89%
% control STEME (STEME=Stellaria media; 25 g/ha): 99%
% control STEME (STEME=Stellaria media; 50 g/ha): 99%
% control STEME (STEME=Stellaria media; 75 g/ha): 99%
% control AMARE ([2]; 20 g/ha): 25%
% control AMARE ([2]; 40 g/ha): 30%
% control AMARE ([2]; 60 g/ha): 40%
% control AMARE ([2]; 80 g/ha): 45%
% control AMARE ([2]; 100 g/ha): 50%

COC(=O)Nc1cccc(OC(=O)Nc2cccc(C)c2)c1 [PMP, 3-[(methoxyformyl)amino]phenyl (3-methylphenyl)carbamate]
% control BRADC ([1]; 75 g/ha, 21 DAA): 0%
% control BRADC ([1]; 75 g/ha, 35 DAA): 0%
% control BRADC ([1]; 100 g/ha, 21 DAA): 0%
% control BRADC ([1]; 100 g/ha, 35 DAA): 0%
% control BRADC ([1]; 125 g/ha, 21 DAA): 0%
% control BRADC ([1]; 125 g/ha, 35 DAA): 0%
% control BRADC ([1]; 250 g/ha, 21 DAA): 0%
% control BRADC ([1]; 250 g/ha, 35 DAA): 0%
% control STEME (STEME=Stellaria media; 12.5 g/ha): 0%
% control STEME (STEME=Stellaria media; 25 g/ha): 0%
% control STEME (STEME=Stellaria media; 50 g/ha): 0%
% control STEME (STEME=Stellaria media; 75 g/ha): 0%
% control STEME (STEME=Stellaria media; 100 g/ha): 0%
% control STEME (STEME=Stellaria media; 125 g/ha): 25%
% control STEME (STEME=Stellaria media; 300 g/ha): 77%
% damage GLXMA (soybean) ([3]; 12.5 g/ha): 2%
% damage GLXMA (soybean) ([3]; 25 g/ha): 3%
% damage GLXMA (soybean) ([3]; 75 g/ha): 0%
% damage GLXMA (soybean) ([3]; 125 g/ha): 5%
% damage GLXMA (soybean) ([3]; 200 g/ha): 18%
% damage GLXMA (soybean) ([3]; 300 g/ha): 20%
% control AMARE ([2]; 150 g/ha): 0%
% control AMARE ([2]; 300 g/ha): 5%
